Test results as given in patent US20140127185A1, “METHODS AND COMPOSITIONS USING NEUROPROTECTIVE STEROIDS AND THROMBOLYTIC AGENTS” (priority 2012, published 2014).

Key:
MMP-9 [1] = assay: MMP-9 levels in bEND3 cells exposed to H/R and tPA; type: cell-based, mouse; settings: bEND3 cells exposed to H/R and tPA for 9 hours; progesterone pretreatment
Protocol: The bEnd 3 cells grown to confluence on coverslips are subjected to the indicated treatments. For […], cells are washed three times with PBS, fixed in 3% paraformaldehyde for 10 minutes, permeabilized with 02% Triton X-100 in PBS for 10 minutes and blocked with 10% BSA and 0.1% Triton X-100 in PBS for 1 hour. After washing with PBS, the monolyers are incubated with a primary antibody for occludin (Invitrogen, 1:200) and MMP-9 (Abeam, Mass., USA, 1:200) overnight at 4° C. The cell monolayers are then washed 3 times with PBS and incubated with Alexa Fluor 488 anti-rabbit and orange anti-mouse (Molecular Probes, Eugene, Oreg.) for 1 hour. After washing in PBS, the coverslips are mounted on glass slides with Vectasheild with dapi (Vecta Laboratories).
To mimic ischemia-like conditions in vitro, immortalized mouse brain endothelial (bEND3) cells were exposed to 6 hours of hypoxia and 3 hours of reoxygeneation with or without the administration of tPA at a dose of 20 μ/ml. […] BBB integrity was evaluated by transendothelial membrane electrical resistance (TEER) measurement, MMP-9 activity, and the alteration of tight junction proteins following in vitro H/R injury.
To directly determine MMP-9 activity after ischemia, proteolytic activity of MMP-9 was measured using a fluorescence resonance energy transfer peptide. […]

[2] = tested on: rats with MCAO induced by homologous blood clots; assay: Delayed tPA to cause hemorrhage: embolic MCAO model of hemorrhagic transformation; type: in vivo, rat; settings: recombinant tPA 10 mg/kg through the tail vein at 4.5 hours post MCAO-induction
Source text: A focal thromboembolic model of cerebral ischemia is induced in rats by middle cerebral artery occlusion (MCAO) via the fibrin-rich clots technique under isoflurane anesthesia. Surgical anesthesia is induced with isoflurane (5% induction, 2% maintenance, […]). Rats are cannulated with a femoral artery catheter for measurement of arterial blood gases, pH (Ciba-Corning 248 pH/blood gas analyzer), blood glucose, hematocrit and mean arterial blood pressure. The body temperature of the animals is maintained at […] with a heating pad controlled by rectal thermistors. A closed cranial window is made in the right parietal skull (2 mm posterior, 6 mm lateral to bregma) for laser doppler probe placement. The rats are mounted on a modified stereotaxic frame equipped with a facemask. The right common carotid artery (CCA), the right internal carotid artery (ICA) and the right external carotid artery (ECA) are exposed by a ventral incision in throat. After surgical preparation of the right CCA and ligation of the pterygo-palatine artery, a PE10 catheter is inserted into the ECA. The tip of the catheter is placed close to the carotid bifurcation. To achieve thromboembolic occlusion of the right middle cerebral artery, 12 medium-sized fibrin rich clots suspended in phosphate with phosphate buffered saline (0.3 ml) are injected by a 1 ml syringe connected to the catheter. […]

claudin-5 = assay: Tight junction protein Western blot in vivo (ischemic cortices): claudin-5; set-up: species or system rat; settings: 24 hours after ischemia, compared to stroke without tPA / with tPA
Protocol: Peri-infarct cortical tissue is processed for protein analysis. Tissues are homogenized in T-per (Pierce, Rockford, Ill.) containing protease inhibitor cocktail (P8340, Sigma). Homogenates are centrifuged for 15 minutes at 13,000 g. 40 μg of total protein is separated on 8-12% gel and transferred onto polyvinylidene difluoride (Millipore, Mass., USA; PVDF) membranes at 300 mA for 2 hours. To measure the level of immunoglobulin, the membranes were incubated overnight at 4° C. with anti Rat IgG conjugated to biotin. bEND 3 cells are subjected to hypoxia/reperfusion for 9 hours and then lysed on ice in 100 μl of RIPA buffer. Cell lysated are boiled and then electrophoresed in 12% SDS-PAGE acrylamide gels, transferred onto PVDF membranes, and incubated for 1 hour in TBS-T (tris-buffered saline and 0.1% Tween 20) containing 5% bovine serum albumin (BSA). Membranes are then incubated overnight at 4° C. with primary antibodies against occludin (Invitrogen, Calif., USA; 1:1000), claudin-5 (Invitrogen; 1:1000), and ZO-1 (Invitrogen; 1:1000), washed in TBS-T, and incubated for 1 hour at room temperature with corresponding peroxidase-conjugated secondary antibodies (1:5000; KPL, Gaithersburg, Md.). All blots are stripped and re-incubated with β-actin antibodies (1:5000, Sigma) as a loading control. […] Intensity of the bands is measured by an Image Gauge version. […]

MMP-9 [3] = assay: Active MMP-9 fluorometric FRET peptide assay of ischemic cortex lysates; type: in vivo, rat; settings: 24 hours after ischemia; tPA at 4.5 hours; vs control and tMCAO groups
Protocol: A Fluorimetric SensoLyte™ 490 kit (AnaSpec Corp., San Jose, Calif. USA) is used to quantify the specific enzymetic activity of active MMP-9 by using a fluorescence resonance energy transfer peptide containing a fluorescent donor and quenching acceptor (Lin, Hou et al. 2008). The samples (100 μg) are placed in a 96-well plate containing 50 μl of assay buffer. The proteolytic resonance energy transfer peptide is expressed as a fold change in fluorescence intensity at excitation of 355 nm/emission of 460 nm.
For in vivo evaluation, Male SD rats were subjected to MCAO, reperfused at 4.5 hours and then treated with tPA only (5 mg/kg body weight via femoral vein) at 4.5 hours post-stroke or with progesterone (intraperitoneally) at 2 hours post-stroke plus tPA at 4.5 hours post-stroke. Rats were killed at 24 hours post-ischemia and their brains perfused for evaluation of cerebral hemorrhage, brain swelling, BBB permeability, MMP-9 activity, and the alteration of tight junction proteins.
To directly determine MMP-9 activity after ischemia, proteolytic activity of MMP-9 was measured using a fluorescence resonance energy transfer peptide. […] Consistent with the Western blot results, exposure of cells to H/R and tPA for 9 hours reduced the detected levels of occludin, as compared to control bEND 3 cells, while MMP-9 levels were increased in cells exposed to H/R and tPA for 9 hours.

[4] = tested on: blood-brain barrier (BBB); assay: BBB disruption: serum IgG in ischemic cortex by Western blot; type: in vivo, rat; settings: 24 hours after ischemic injury and tPA treatment

tPA: serum protease acting specifically on serum plasminogen; also known as alteplase, available commercially as Activase
MMP-9 levels (MMP-9 [1]): increased
Hemispheric enlargement and hemorrhage [2]: significant hemispheric enlargement and hemorrhage
Lower molecular weight 17-kDa claudin-5 fragments (claudin-5): increase
MMP-9 activity (FRET peptide) (MMP-9 [3]): significantly higher
Increase of IgG levels in ischemic cortex [4]: up to 2 ×
